Laboratory results from patent US20080268028A1, “Lyophilization of virosomes” (Pevion Biotech Ltd., priority 2004, published 2008).

Assay: Virosomal fusion activity before and after lyophilization (FRET assay)
Details: cationic lipid as integral virosomal membrane component; after lyophilization and reconstitution
Procedure: FRET Assay: For in vitro fusion measurements by fluorescence resonance energy transfer (FRET) (Struck et al., Biochemistry 20(14):4093-99, 1981; Loyter et al., Methods Biochem. Anal. 33:129-64, 1988), the following assay was developed: 0.75 mol % of Bodipy 530/550-DHPE and 0.25 mol % of N-Rh-DHPE were incorporated into liposomes consisting of PC/DPPG (70:30). Fluorescence measurements were carried out at discrete temperatures between 4° C. and 42° C. in 5 mM sodium phosphate buffer pH 7.5, 100 mM NaCl, in a final volume of 0.8 ml in 2.5 ml PMMA micro-cuvettes (VWR, Switzerland) under continuous stirring. […] The increase in fluorescence was recorded every 5 seconds at excitation and emission wavelengths of 538 nm and 558 nm, respectively, with an excitation slit of 2.5 nm and an emission slit of 15.0 nm. Measurements were carried out with an LS 55 Luminescence spectrometer (Perkin Elmer Instruments, USA) equipped with a thermostated cuvette holder and a magnetic stirring device. The maximal fluorescence at infinite probe dilution was reached after addition of Triton X-100 (0.5% v/v final concentration). For calibration of the fluorescence scale the initial residual fluorescence of the liposomes was set to zero and the fluorescence at infinite probe dilution to 100%.

Compound	preservation of virosomal fusion-activity
CC(C)CCC[C@@H](C)[C@H]1CC[C@H]2[C@@H]3CC=C4C[C@@H](OC(=O)NCCN(C)C)CC[C@]4(C)[C@H]3CC[C@]12C.Cl [DC-Chol, 3β[N-(N′,N′-dimethylammonioethane)-carbamoyl]cholesterol chloride]	superior properties in preserving virosomal fusion-activity
CC(C)CCC[C@@H](C)[C@H]1CC[C@H]2[C@@H]3CC=C4C[C@@H](OC(=O)NCC[N+](C)(C)C)CC[C@]4(C)[C@H]3CC[C@]12C.[Cl-] [TC-Chol, 3β[N-(N′,N′,N′-trimethylammonioethane)-carbamoyl]cholesterol chloride]	superior properties in preserving virosomal fusion-activity
